Test results reported in PubChem BioAssay AID2060511 (Molecular Pharmacology Branch, DTP, NCI, 2025).
pIC50: −log10 of the molar value.

Test system: 422866-222-R5-J1-PDC spheroids with HUVEC/MSC, viability
Assay: Anticancer human tumor 422866-222-R5-J1-PDC patient-derived pancreatic adenocarcinoma cell line growth inhibition [GQUAD]
Details: for pIC50: curve of first compound; for viability, T/C: stronger effect = lower value
Summary of the method: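 Multi-cell-type spheroids of tumor cells with HUVEC and mesenchymal stem cells, treated with drug combinations. Concentrations descend in half-log steps from near clinical Cmax, or from 10 microM where Cmax is unknown; viability read-out.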
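Further: spheroids exposed to compounds for seven days before reading.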
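Wherever viability, T/C is given: percent viability relative to DMSO vehicle control taken as 100%.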

Structure (SMILES): CCc1c2c(nc3ccc(O)cc13)-c1cc3c(c(=O)n1C2)COC(=O)[C@]3(O)CC + Cc1[nH]c2ccc(F)cc2c1-c1nc2c3cccnc3c3ncccc3c2[nH]1
- pIC50 (second compound 0.0316 µM): 8.60
- pIC50 (second compound 0.1 µM): 8.66
- pIC50 (second compound 0.316 µM): > 9.00
- pIC50 (second compound 1 µM): 8.70
- pIC50 (second compound 3.16 µM): 8.84
- pIC50 (second compound 10 µM): > 9.00
- viability, T/C (second compound 0.0316 µM, first compound 0.000999 µM): 61.3%
- viability, T/C (second compound 0.0316 µM, first compound 0.00316 µM): 43.6%
- viability, T/C (second compound 0.0316 µM, first compound 0.00999 µM): 41.5%
- viability, T/C (second compound 0.0316 µM, first compound 0.0316 µM): 41.4%
- viability, T/C (second compound 0.0316 µM, first compound 0.0999 µM): 36.3%
- viability, T/C (second compound 0.0316 µM, first compound 0.316 µM): 30.3%
- viability, T/C (second compound 0.1 µM, first compound 0.000999 µM): 60%
- viability, T/C (second compound 0.1 µM, first compound 0.00316 µM): 44.6%
- viability, T/C (second compound 0.1 µM, first compound 0.00999 µM): 38%
- viability, T/C (second compound 0.1 µM, first compound 0.0316 µM): 34.3%
- viability, T/C (second compound 0.1 µM, first compound 0.0999 µM): 38.7%
- viability, T/C (second compound 0.1 µM, first compound 0.316 µM): 28.1%
- viability, T/C (second compound 0.316 µM, first compound 0.000999 µM): 52.8%
- viability, T/C (second compound 0.316 µM, first compound 0.00316 µM): 40.8%
- viability, T/C (second compound 0.316 µM, first compound 0.00999 µM): 39.5%
- viability, T/C (second compound 0.316 µM, first compound 0.0316 µM): 45%
- viability, T/C (second compound 0.316 µM, first compound 0.0999 µM): 39.2%
- viability, T/C (second compound 0.316 µM, first compound 0.316 µM): 25.9%
- viability, T/C (second compound 1 µM, first compound 0.000999 µM): 55.8%
- viability, T/C (second compound 1 µM, first compound 0.00316 µM): 45.6%
- viability, T/C (second compound 1 µM, first compound 0.00999 µM): 39.9%
- viability, T/C (second compound 1 µM, first compound 0.0316 µM): 38%
- viability, T/C (second compound 1 µM, first compound 0.0999 µM): 38.3%
- viability, T/C (second compound 1 µM, first compound 0.316 µM): 31.2%
- viability, T/C (second compound 3.16 µM, first compound 0.000999 µM): 54.3%
- viability, T/C (second compound 3.16 µM, first compound 0.00316 µM): 40.9%
- viability, T/C (second compound 3.16 µM, first compound 0.00999 µM): 36.4%
- viability, T/C (second compound 3.16 µM, first compound 0.0316 µM): 35.4%
- viability, T/C (second compound 3.16 µM, first compound 0.0999 µM): 37.7%
- viability, T/C (second compound 3.16 µM, first compound 0.316 µM): 31.6%
- viability, T/C (second compound 10 µM, first compound 0.000999 µM): 48.8%
- viability, T/C (second compound 10 µM, first compound 0.00316 µM): 41.5%
- viability, T/C (second compound 10 µM, first compound 0.00999 µM): 44%
- viability, T/C (second compound 10 µM, first compound 0.0316 µM): 40.7%
- viability, T/C (second compound 10 µM, first compound 0.0999 µM): 34.2%
- viability, T/C (second compound 10 µM, first compound 0.316 µM): 27.7%
